Test [1] deals with Methicillin Resistant Staphylococcus aureus strain USA 200. Description: Minimum inhibitory concentration (MIC), CLSI broth micro-dilution, S. aureus. The class given is cell-based. The note with it: Staphylococcus aureus, MRSA / USA200; Table 6; MRSA USA 200; cation adjusted Mueller Hinton Broth + 0.002% Tween-80; 35° C., 22 hours. Put shortly:
(§1)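 Antibacterial potency is measured as MIC by the CLSI broth dilution method. Bacteria at OD600 0.0005 in Tween-80-supplemented cation-adjusted Mueller Hinton broth face ten twofold compound dilutions for 22 h at 35° C.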
(In general: In broth dilution the organism is exposed to a series of concentrations in liquid medium.)

Test [2] deals with Escherichia coli ATCC 25922. Description: Minimum inhibitory concentration (MIC), CLSI broth micro-dilution, E. coli. The class given is cell-based. As to conditions: Escherichia coli, ATCC25922, 22 h, Table 6, cation adjusted Mueller Hinton Broth + 0.002% Tween-80, 35° C. Put shortly: as §1

Consider `Cc1nc(-c2cccc(C(C)(C)C)c2)ncc1C(=O)N[C@@H](CCN)C(=O)N(C)[C@@H]1C(=O)N[C@@H](C)C(=O)N[C@H](C(=O)NCC#N)Cc2ccc(OCCN)c(c2)-c2cc1ccc2OCCN` (racemic) [Compound 237, rac-(8S,11S,14S)-3,18-bis(2-aminoethoxy)-N-(cyanomethyl)-11-methyl-14-[methyl-[rac-(2S)-4-amino-2-[[2-(3-tert-butylphenyl)-4-methyl-pyrimidine-5-carbonyl]amino]butanoyl]amino]-10,13-dioxo-9,12-diazatricyclo[13.3.1.12,6]icosa-1(18),2(20),3,5,15(19),16-hexaene-8-carboxamide], for which the MIC came to 0.0083 µM in test [1] and 0.27 µM in test [2].

For the molecule `Cc1nc(-c2ccc(O)cc2)nc(C)c1C(=O)N[C@@H](CCN)C(=O)N(C)[C@@H]1C(=O)N[C@@H](C)C(=O)N[C@H](C(=O)NCC#N)Cc2ccc(OCCN)c(c2)-c2cc1ccc2OCCN` (racemic) [Compound 542, rac-(8S,11S,14S)-3,18-bis(2-aminoethoxy)-N-(cyanomethyl)-11-methyl-14-[methyl-[rac-(2S)-4-amino-2-[[2-(4-hydroxyphenyl)-4,6-dimethyl-pyrimidine-5-carbonyl]amino]butanoyl]amino]-10,13-dioxo-9,12-diazatricyclo[13.3.1.12,6]icosa-1(18),2(20),3,5,15(19),16-hexaene-8-carboxamide], the MIC is 0.55 µM in test [1] and 4.4 µM in test [2].

Take `Cc1cc(C(=O)N[C@@H](CCN)C(=O)N(C)[C@@H]2C(=O)N[C@@H](C)C(=O)N[C@H](C(=O)NCC#N)Cc3ccc(OCCN)c(c3)-c3cc2ccc3OCCN)c(C)nc1-c1ccc(C(C)(C)C)cc1` (racemic) [Compound 402, rac-(8S,11S,14S)-3,18-bis(2-aminoethoxy)-N-(cyanomethyl)-11-methyl-14-[methyl-[rac-(2S)-4-amino-2-[[6-(4-tert-butylphenyl)-2,5-dimethyl-pyridine-3-carbonyl]amino]butanoyl]amino]-10,13-dioxo-9,12-diazatricyclo[13.3.1.12,6]icosa-1(18),2(20),3,5,15(19),16-hexaene-8-carboxamide]: the figures for the MIC in test [1] and in test [2] were 0.031 µM and 0.38 µM, respectively.

With `CNc1cc(C(=O)N[C@@H](CCN)C(=O)N(C)[C@@H]2C(=O)N[C@@H](C)C(=O)N[C@H](C(=O)NCC#N)Cc3ccc(OCCN)c(c3)-c3cc2ccc3OCCN)c(C)nc1-c1ccc(C(C)(C)C)cc1` (racemic) [Compound 409, rac-(8S,11S,14S)-3,18-bis(2-aminoethoxy)-N-(cyanomethyl)-11-methyl-14-[methyl-[rac-(2S)-4-amino-2-[[6-(4-tert-butylphenyl)-2-methyl-5-(methylamino)pyridine-3-carbonyl]amino]butanoyl]amino]-10,13-dioxo-9,12-diazatricyclo[13.3.1.12,6]icosa-1(18),2(20),3,5,15(19),16-hexaene-8-carboxamide], the minimal inhibitory concentration (MIC) in test [1] was 0.13 µM; in test [2], 0.75 µM.

Regarding `C[C@@H]1NC(=O)[C@@H](N(C)C(=O)[C@H](CCN)NC(=O)c2ccc(Oc3ccc(C(C)(C)C)cc3)cc2Cl)c2ccc(OCCN)c(c2)-c2cc(ccc2OCCN)C[C@@H](C(=O)NCC#N)NC1=O` (racemic) [Compound 376, rac-(8S,11S,14S)-3,18-bis(2-aminoethoxy)-N-(cyanomethyl)-11-methyl-14-[methyl-[rac-(2S)-4-amino-2-[[4-(4-tert-butylphenoxy)-2-chloro-benzoyl]amino]butanoyl]amino]-10,13-dioxo-9,12-diazatricyclo[13.3.1.12,6]icosa-1(18),2(20),3,5,15(19),16-hexaene-8-carboxamide], the MIC in test [1] came out at 0.016 µM; in test [2], 0.25 µM.

Turning to `CCc1nc(-c2ccc(CC(C)C)cc2)ncc1C(=O)N[C@@H](CCN)C(=O)N(C)[C@@H]1C(=O)N[C@@H](C)C(=O)N[C@H](C(=O)NCC#N)Cc2ccc(OCCN)c(c2)-c2cc1ccc2OCCN` (racemic) [Compound 417, rac-(8S,11S,14S)-3,18-bis(2-aminoethoxy)-N-(cyanomethyl)-11-methyl-14-[methyl-[rac-(2S)-4-amino-2-[[4-ethyl-2-(4-isobutylphenyl)pyrimidine-5-carbonyl]amino]butanoyl]amino]-10,13-dioxo-9,12-diazatricyclo[13.3.1.12,6]icosa-1(18),2(20),3,5,15(19),16-hexaene-8-carboxamide], the MIC stood at 0.0062 µM in test [1] and 0.13 µM in test [2].

As for `Cc1nc(-c2ccc(OC3CCCCC3)cc2)nc(C)c1C(=O)N[C@@H](CCNC(N)=O)C(=O)N(C)[C@@H]1C(=O)N[C@@H](C)C(=O)N[C@H](C(=O)NCC#N)Cc2ccc(OCCN)c(c2)-c2cc1ccc2OCCN` [Compound 498, (8S,11S,14S)-3,18-bis(2-aminoethoxy)-N-(cyanomethyl)-14-[[(2S)-2-[[2-[4-(cyclohexoxy)phenyl]-4,6-dimethyl-pyrimidine-5-carbonyl]amino]-4-ureido-butanoyl]-methyl-amino]-11-methyl-10,13-dioxo-9,12-diazatricyclo[13.3.1.12,6]icosa-1(18),2(20),3,5,15(19),16-hexaene-8-carboxamide], the MIC in test [1] came out at 0.063 µM; in test [2], 1 µM.

Regarding `Cc1nc(-c2ccc(CC(C)C)cc2)ncc1C(=O)N[C@@H](CCO)C(=O)N(C)[C@@H]1C(=O)N[C@@H](C)C(=O)N[C@H](C(=O)NCC#N)Cc2ccc(OCCN)c(c2)-c2cc1ccc2OCCN` (racemic) [Compound 458, rac-(8S,11S,14S)-3,18-bis(2-aminoethoxy)-N-(cyanomethyl)-11-methyl-14-[methyl-[rac-(2S)-4-hydroxy-2-[[2-(4-isobutylphenyl)-4-methyl-pyrimidine-5-carbonyl]amino]butanoyl]amino]-10,13-dioxo-9,12-diazatricyclo[13.3.1.12,6]icosa-1(18),2(20),3,5,15(19),16-hexaene-8-carboxamide], the minimal inhibitory concentration (MIC) in test [1] was found to be 0.033 µM; in test [2], 1.1 µM.

For `Cc1nc(-c2ccc(OC3CCCCC3)cc2)nc(C)c1C(=O)N[C@@H](CCC(N)=O)C(=O)N(C)[C@@H]1C(=O)N[C@@H](C)C(=O)N[C@H](C(=O)NCC#N)Cc2ccc(OCCN)c(c2)-c2cc1ccc2OCCN` (racemic) [Compound 505, rac-(2S)-2-[[2-[4-(cyclohexoxy)phenyl]-4,6-dimethyl-pyrimidine-5-carbonyl]amino]-N-methyl-N-[rac-(7S,10S,13S)-3,18-bis(2-aminoethoxy)-13-(cyanomethylcarbamoyl)-10-methyl-8,11-dioxo-9,12-diazatricyclo[13.3.1.12,6]icosa-1(19),2,4,6(20),15,17-hexaen-7-yl]pentanediamide], the MIC was found to be 0.094 µM in test [1] and 1.5 µM in test [2].

Turning to `Cc1cc(-c2ccc(C(C)(C)C)cc2)nc(C)c1C(=O)N[C@@H](CCN)C(=O)N(C)[C@@H]1C(=O)N[C@@H](C)C(=O)N[C@H](C(=O)NCC#N)Cc2ccc(O)c(c2)-c2cc1ccc2OCCN` (racemic) [Compound 530, rac-(8S,11S,14S)-18-(2-aminoethoxy)-N-(cyanomethyl)-3-hydroxy-11-methyl-14-[methyl-[rac-(2S)-4-amino-2-[[6-(4-tert-butylphenyl)-2,4-dimethyl-pyridine-3-carbonyl]amino]butanoyl]amino]-10,13-dioxo-9,12-diazatricyclo[13.3.1.12,6]icosa-1(18),2(20),3,5,15(19),16-hexaene-8-carboxamide], the values for the MIC in test [1] and in test [2] were 0.063 µM and 0.35 µM, respectively.

Take `C[C@@H]1NC(=O)[C@@H](N(C)C(=O)[C@H](CCN)NC(=O)c2cc(N)c(-c3ccc(C(C)(C)C)cc3)nc2N)c2ccc(OCCN)c(c2)-c2cc(ccc2OCCN)C[C@@H](C(=O)NCC#N)NC1=O` (racemic) [Compound 416, rac-(8S,11S,14S)-3,18-bis(2-aminoethoxy)-N-(cyanomethyl)-11-methyl-14-[methyl-[rac-(2S)-4-amino-2-[[2,5-diamino-6-(4-tert-butylphenyl)pyridine-3-carbonyl]amino]butanoyl]amino]-10,13-dioxo-9,12-diazatricyclo[13.3.1.12,6]icosa-1(18),2(20),3,5,15(19),16-hexaene-8-carboxamide]: the MIC was 0.094 µM in test [1] and 3 µM in test [2].

For the molecule `CCCCCOc1ccc(-c2nc(C)c(C(=O)N[C@@H](CCN)C(=O)N(C)[C@@H]3C(=O)N[C@@H](C)C(=O)N[C@H](C(=O)NCC#N)Cc4ccc(O)c(c4)-c4cc3ccc4OCCN)c(C)n2)cc1` (racemic) [Compound 518, rac-(8S,11S,14S)-18-(2-aminoethoxy)-N-(cyanomethyl)-3-hydroxy-11-methyl-14-[methyl-[rac-(2S)-4-amino-2-[[4,6-dimethyl-2-(4-pentoxyphenyl)pyrimidine-5-carbonyl]amino]butanoyl]amino]-10,13-dioxo-9,12-diazatricyclo[13.3.1.12,6]icosa-1(18),2(20),3,5,15(19),16-hexaene-8-carboxamide], the MIC in test [1] worked out at 0.028 µM; in test [2], 0.16 µM.

For the molecule `CCc1ccc(-c2ncc(C(=O)N[C@@H](CCN)C(=O)N(C)[C@@H]3C(=O)N[C@@H](C)C(=O)N[C@H](C(=O)NCC#N)Cc4ccc(OCCN)c(c4)-c4cc3ccc4OCCN)c(C)n2)c2ccccc12` (racemic) [Compound 221, rac-(8S,11S,14S)-3,18-bis(2-aminoethoxy)-N-(cyanomethyl)-11-methyl-14-[methyl-[rac-(2S)-4-amino-2-[[2-(4-ethyl-1-naphthyl)-4-methyl-pyrimidine-5-carbonyl]amino]butanoyl]amino]-10,13-dioxo-9,12-diazatricyclo[13.3.1.12,6]icosa-1(18),2(20),3,5,15(19),16-hexaene-8-carboxamide], the figures for the minimum inhibitory concentration (MIC) in test [1] and in test [2] were 0.024 µM and 1 µM, respectively.

By MIC is commonly meant the lowest concentration that inhibits growth of the organism.
